# Measurements published in article PMC7217877, “N-AS-triggered SPMs are direct regulators of microglia in a model of Alzheimer’s disease” (Nature Communications, 2020).
# Several values for one entry are separate records, joined by “and”; a condition that tells them apart may be missing. Identical values can stand only once.
# Tested on: APP/PS1 mice
# Assay: Iba1+ microglia and GFAP+ astrocyte quantification in cortex (Fig 6h,i)
# Format: in vivo, mouse
# Description: Thioflavin S (Sigma-Aldrich) staining was carried out according to previously described procedures. We used 6E10 (mouse, 1:100, Signet, SIG39300), anti-20G10 (mouse, 1:1000, provided by D. R. Howlett, GlaxoSmithKline, Harlow, Essex, UK) for Aβ42, anti-G30 (rabbit, 1:1000, provided by D. R. Howlett) for Aβ40, SMA (mouse, 1:400, Sigma-Aldrich, A2547), AT8 (mouse, 1:500, Thermo Fisher Scientific, MN1020), Caspase-3 (mouse, 1:200, Novus Biologicals, NB100-56708), ac-S565 (rabbit, 1:100), COX2 (mouse, 1:250, Thermo Fisher Scientific, 35-8200), Iba1 (rabbit, 1:500, Wako, 019-19941 and goat, Abcam, ab5076), NeuN (mouse, 1:500, Millipore, MAB177), GFAP (rabbit, 1:500, Dako, N1506 and chicken, 1:500, Abcam, ab4674), and Lamp1 (mouse, 1:200, Abcam, ab24170). The sections were analyzed with a laser-scanning confocal microscope (FV3000; Olympus) or with a BX51 microscope (Olympus). MetaMorph software (Molecular Devices) was used to quantification. Three-dimensional reconstruction of microglia was recorded and analyzed using IMARIS software (Bitplane)[11]. For the analysis of age-dependent microglial COX2^+ CX3CR1^+ cells in WT and APP/PS1 mice, COX2 (rabbit, 1:100, Abcam, ab15191) and CX3CR1 (mouse, 1:100, BioLegend, 149008) antibody were used and the images were acquired on Alexa 488 and APC Channel with performed using Operetta CLS and Analysis Software 4.5 (Perkin-Elmer).
# Transgenic mouse lines over-expressing the hAPP695swe (APP) and presenilin-1M146V (PS1) mutations were originated from GlaxoSmithKline (Harlow, UK)[32] and maintained as described previously. We purchased 5×FAD mice from Jackson Labs (Stock number. 34840-JAX). Because APP/PS1 and 5xFAD mice show sex differences in disease progression, we used only male mice. To examine possible therapeutic effect of N-AS and aspirin in APP/PS1 mice, the N-AS (30 mg kg^−1, Sigma-Aldrich, 01912) was injected daily s.c. for 8 weeks to 7-months-old APP/PS1 mice until the age of 9 months, and aspirin (2 mg kg^−1, Sigma-Aldrich, A5376)[33] was administrated orally to 7-months-old APP/PS1 mice for 8 weeks. […]
# [1] = APP/PS1 + N-AS, individual animals
structure (smiles),measurement,setting,value
"CCCCCCCCCCCCC/C=C/[C@@H](O)[C@H](CO)NC(C)=O [N-AS, N-((2S,3R,E)-1,3-Dihydroxyoctadec-4-en-2-yl)acetamide]",GFAP+ astrocyte quantification (Figure 6i),[1],2.9 and 1.684 and 2.972 and 1.386 and 1.661 and 0.8495 and 1.293 and 1.379
same,Iba1+ microglia quantification (Figure 6h),[1],0.2355 and 0.191 and 0.3245 and 0.8739 and 0.8648 and 0.875 and 0.5574 and 0.579 and 0.4301
same,"inflammatory response (Iba1+ microglia, GFAP+ astrocyte)",N-AS vs vehicle APP/PS1,improved
